# Laboratory results published in patent publication US5534242A, “Lidocaine-vasoconstrictor aerosol preparation” (priority 1995, dated 1996).
# Structures can show the parent of a compound that is named as a salt.
# Experiments:
# [1] = cited from earlier work
# [2] = Solubilization of vasoconstricting agents in HFC propellants with lidocaine base; stability of the formulations; details: for Behaviour of ethanol solution on addition of HFC-134a: ethanol solution also containing lidocaine free base; for Solubility in lidocaine base/HFC-134a solution: base form dissolved in ethanol (Formulations 11 and 12)
# Method: The formulations of this invention can be manufactured in different ways. In one method, the lidocaine and vasoconstricting agent are dissolved in the organic solvent and place in the aluminum canister which is then capped and pressure filled with propellant. Where an organic solvent is not required, the lidocaine and vasoconstricting agent are dissolved in the propellant which is then pressure filled into the closed empty aluminum canister.
# These formulations are presented for exemplary purposes only and by no means limit the scope and content of the invention defined by the claims.
# nasal mucosa = details: cited from earlier work
structure (smiles),measurement,setting,value
OCc1ccccc1 [Benzyl alcohol],Solubility of organic solvent in HFC-134a,"HFC-134a, no lidocaine",not soluble
COC(=O)[C@H]1[C@@H](OC(=O)c2ccccc2)C[C@@H]2CC[C@H]1N2C [Cocaine],Dose that may cause systemic toxicity,[1]; even small doses,approximately 30 mg
same,Tolerability,[1]; most patients,well tolerated by most patients
"CCN(CC)CC(=O)Nc1c(C)cccc1C [Lidocaine base, 2-(diethylamino)-2',6'-acetoxylidide]",Behaviour of ethanol solution on addition of HFC-134a,[2]; HFC-134a,remained in solution
same,Vasoconstriction of the mucosa,nasal mucosa,does not vasoconstrict the mucosa
CNC[C@H](O)c1cccc(O)c1 [Phenylephrine],Decongestion of the nasal mucosa,nasal mucosa,excellent decongestion
COc1ccc(OC)c(C(O)C(C)N)c1 (stereo not shown) [methoxamine],Solubility in lidocaine base/HFC-134a solution,[2],readily soluble
CNC[C@H](O)c1cccc(O)c1 [phenylephrine base],Clear and stable solution with phenylephrine base substituted for the hydrochloride in formulation 9,"[2]; diethylene glycol, lidocaine base, HFC-134a",Clear and stable solutions
"CNC[C@H](O)c1cccc(O)c1 [phenylephrine hydrochloride, (R)-3-hydroxy-alpha-[(methylamino)methyl]benzene methanol hydrochloride]",Behaviour of ethanol solution on addition of HFC-134a,[2]; HFC-134a,remained in solution
same,Behaviour of ethyl alcohol solution on addition of HFC-134a,"2.5% w/w in ethyl alcohol, HFC-134a, no lidocaine",precipitated out of solution
same,Solubility in HFC propellants,"HFC-134a and HFC-227, no lidocaine",insoluble
same,Additional ethyl alcohol required to maintain a solution in HFC-134a in the absence of lidocaine base,"HFC-134a, versus with lidocaine base, almost 50% more",~50%
same,Solubility of combination with benzyl alcohol in HFC-134a,"benzyl alcohol + HFC-134a, no lidocaine",not soluble
same,Solubility in benzyl alcohol,"benzyl alcohol, HFC-134a added, no lidocaine",remained in solution
same,Solubility in diethylene glycol,diethylene glycol,soluble
same,Solubility of combination with diethylene glycol in HFC-134a,"diethylene glycol + HFC-134a, no lidocaine",not soluble
same,Solubility in propylene glycol,propylene glycol,soluble
same,Solubility of combination with propylene glycol in HFC-134a,"propylene glycol + HFC-134a, no lidocaine",not soluble
CC(N)C(O)c1ccccc1 (stereo not shown) [phenylpropanolamine],Solubility in lidocaine base/HFC-134a solution,[2],readily soluble
